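Tested at 5 concentrations; 48 h exposure; 96-well plates; endpoints linearly interpolated, else capped at highest concentration. GI50: concentration for 50% inhibition of growth.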 Activity calls are given as the source filed them. Cut-off read from the data, not from the text of the source: active = GI50 up to about 1.1 µM and inactive = higher.
What was measured:
Assay in all cases: growth of human tumour cells (NCI), 48 h
OVCAR-8 = tested on: OVCAR-8
SNB-75 = tested on: SNB-75
HCT-116 = tested on: HCT-116
OVCAR-4 = tested on: OVCAR-4
SF-539 = tested on: SF-539
IGROV-1 = tested on: IGROV-1
NCI-H522 = tested on: NCI-H522
Hs-578T = tested on: Hs-578T
DU-145 = tested on: DU-145
EKVX = tested on: EKVX
HOP-92 = tested on: HOP-92
786-0 = tested on: 786-0
MOLT-4 = tested on: MOLT-4
UACC-257 = tested on: UACC-257
HT-29 = tested on: HT-29
SR = tested on: SR
CAKI-1 = tested on: CAKI-1
A549 = tested on: A549
SK-MEL-2 = tested on: SK-MEL-2
HL-60 = tested on: HL-60
NCI-H23 = tested on: NCI-H23
CCRF-CEM = tested on: CCRF-CEM
MDA-N = tested on: MDA-N
PC-3 = tested on: PC-3
SN12C = tested on: SN12C
U-251 = tested on: U-251
RPMI-8226 = tested on: RPMI-8226
SK-MEL-5 = tested on: SK-MEL-5
MDA-MB-435 = tested on: MDA-MB-435
LOX IMVI = tested on: LOX IMVI
OVCAR-3 = tested on: OVCAR-3
Malme-3M = tested on: Malme-3M
COLO 205 = tested on: COLO 205
NCI/ADR-RES = tested on: NCI/ADR-RES
MDA-MB-231 = tested on: MDA-MB-231
MCF7 = tested on: MCF7
SNB-19 = tested on: SNB-19
SK-OV-3 = tested on: SK-OV-3
SF-295 = tested on: SF-295
SF-268 = tested on: SF-268
SW-620 = tested on: SW-620
TK-10 = tested on: TK-10
T47D = tested on: T47D
BT-549 = tested on: BT-549
ACHN = tested on: ACHN
HCC 2998 = tested on: HCC 2998
HCT-15 = tested on: HCT-15
UO-31 = tested on: UO-31
HOP-62 = tested on: HOP-62
OVCAR-5 = tested on: OVCAR-5
K562 = tested on: K562
KM12 = tested on: KM12
UACC-62 = tested on: UACC-62
NCI-H226 = tested on: NCI-H226
M14 = tested on: M14
NCI-H460 = tested on: NCI-H460
SK-MEL-28 = tested on: SK-MEL-28
A498 = tested on: A498

SMILES: C/C(=N/OC(=O)c1cccc2c(=O)c3ccccc3[nH]c12)[C@H]1CC[C@H]2[C@@H]3CCC4=C/C(=N/OC(=O)c5cccc6c(=O)c7ccccc7[nH]c56)CC[C@]4(C)[C@H]3CC[C@]12C
- GI50 (OVCAR-8): 15.7 µM (inactive)
- GI50 (SNB-75): 29.9 µM (inactive)
- GI50 (HCT-116): 12.5 µM (inactive)
- GI50 (OVCAR-4): 34 µM (inactive)
- GI50 (SF-539): 15.1 µM (inactive)
- GI50 (IGROV-1): 14.4 µM (inactive)
- GI50 (NCI-H522): 12.3 µM (inactive)
- GI50 (Hs-578T): 27.7 µM (inactive)
- GI50 (DU-145): 22.7 µM (inactive)
- GI50 (EKVX): 10.6 µM (inactive)
- GI50 (HOP-92): 21.3 µM (inactive)
- GI50 (786-0): 18.5 µM (inactive)
- GI50 (MOLT-4): 10.4 µM (inactive)
- GI50 (UACC-257): 17.1 µM (inactive)
- GI50 (HT-29): 13.5 µM (inactive)
- GI50 (SR): 3.61 µM (inactive)
- GI50 (CAKI-1): 21.2 µM (inactive)
- GI50 (A549): 25.6 µM (inactive)
- GI50 (SK-MEL-2): 12.8 µM (inactive)
- GI50 (HL-60): 3.91 µM (inactive)
- GI50 (NCI-H23): 15.5 µM (inactive)
- GI50 (CCRF-CEM): 2.4 µM (inactive)
- GI50 (MDA-N): 14.1 µM (inactive)
- GI50 (PC-3): 10.5 µM (inactive)
- GI50 (SN12C): 14.7 µM (inactive)
- GI50 (U-251): 15.8 µM (inactive)
- GI50 (RPMI-8226): 2.9 µM (inactive)
- GI50 (SK-MEL-5): 13.1 µM (inactive)
- GI50 (MDA-MB-435): 15.5 µM (inactive)
- GI50 (LOX IMVI): 12.9 µM (inactive)
- GI50 (OVCAR-3): 17.1 µM (inactive)
- GI50 (Malme-3M): 22.2 µM (inactive)
- GI50 (COLO 205): 15.8 µM (inactive)
- GI50 (NCI/ADR-RES): 20.4 µM (inactive)
- GI50 (MDA-MB-231): 14.3 µM (inactive)
- GI50 (MCF7): 11.2 µM (inactive)
- GI50 (SNB-19): 18.2 µM (inactive)
- GI50 (SK-OV-3): 27 µM (inactive)
- GI50 (SF-295): 16.8 µM (inactive)
- GI50 (SF-268): 17 µM (inactive)
- GI50 (SW-620): 13.9 µM (inactive)
- GI50 (TK-10): 17.8 µM (inactive)
- GI50 (T47D): 14.5 µM (inactive)
- GI50 (BT-549): 17.7 µM (inactive)
- GI50 (ACHN): 16 µM (inactive)
- GI50 (HCC 2998): 14 µM (inactive)
- GI50 (HCT-15): 14 µM
- GI50 (UO-31): 15 µM (inactive)
- GI50 (HOP-62): 24.8 µM (inactive)
- GI50 (OVCAR-5): 17.4 µM (inactive)
- GI50 (K562): 4.97 µM (inactive)
- GI50 (KM12): 15.2 µM (inactive)
- GI50 (UACC-62): 14.1 µM (inactive)
- GI50 (NCI-H226): 20 µM (inactive)
- GI50 (M14): 14.6 µM (inactive)

SMILES: CC1(C)C(=O)C(C)(C)C12SSC1(S2)C(C)(C)C(=O)C1(C)C
- GI50 (OVCAR-8): > 100 µM (inactive)
- GI50 (SNB-75): > 100 µM (inactive)
- GI50 (HCT-116): > 100 µM (inactive)
- GI50 (OVCAR-4): > 100 µM (inactive)
- GI50 (NCI-H460): > 100 µM (inactive)
- GI50 (SF-539): > 100 µM (inactive)
- GI50 (IGROV-1): > 100 µM (inactive)
- GI50 (SK-MEL-28): > 100 µM (inactive)
- GI50 (Hs-578T): > 100 µM (inactive)
- GI50 (DU-145): > 100 µM (inactive)
- GI50 (EKVX): > 100 µM (inactive)
- GI50 (HOP-92): > 100 µM (inactive)
- GI50 (786-0): > 100 µM (inactive)
- GI50 (MOLT-4): 71.4 µM (inactive)
- GI50 (UACC-257): > 100 µM (inactive)
- GI50 (A498): > 100 µM (inactive)
- GI50 (HT-29): > 100 µM (inactive)
- GI50 (SR): > 100 µM (inactive)
- GI50 (CAKI-1): > 100 µM (inactive)
- GI50 (A549): 64.9 µM (inactive)
- GI50 (SK-MEL-2): > 100 µM (inactive)
- GI50 (HL-60): 2.41 µM (inactive)
- GI50 (NCI-H23): > 100 µM (inactive)
- GI50 (MDA-N): > 100 µM (inactive)
- GI50 (PC-3): 84.5 µM (inactive)
- GI50 (SN12C): > 100 µM (inactive)
- GI50 (U-251): > 100 µM (inactive)
- GI50 (RPMI-8226): 65.9 µM (inactive)
- GI50 (SK-MEL-5): > 100 µM (inactive)
- GI50 (MDA-MB-435): > 100 µM (inactive)
- GI50 (LOX IMVI): > 100 µM (inactive)
- GI50 (OVCAR-3): > 100 µM (inactive)
- GI50 (Malme-3M): 48.2 µM (inactive)
- GI50 (COLO 205): 67 µM (inactive)
- GI50 (NCI/ADR-RES): 77.1 µM (inactive)
- GI50 (MDA-MB-231): > 100 µM (inactive)
- GI50 (MCF7): > 100 µM (inactive)
- GI50 (SNB-19): > 100 µM (inactive)
- GI50 (SK-OV-3): > 100 µM (inactive)
- GI50 (SF-295): > 100 µM (inactive)
- GI50 (SF-268): > 100 µM (inactive)
- GI50 (SW-620): > 100 µM (inactive)
- GI50 (TK-10): > 100 µM (inactive)
- GI50 (T47D): > 100 µM (inactive)
- GI50 (BT-549): > 100 µM (inactive)
- GI50 (ACHN): > 100 µM (inactive)
- GI50 (HCC 2998): > 100 µM (inactive)
- GI50 (HCT-15): > 100 µM
- GI50 (UO-31): > 100 µM (inactive)
- GI50 (HOP-62): > 100 µM (inactive)
- GI50 (OVCAR-5): > 100 µM (inactive)
- GI50 (K562): > 100 µM (inactive)
- GI50 (KM12): > 100 µM (inactive)
- GI50 (UACC-62): > 100 µM (inactive)
- GI50 (NCI-H226): 42.6 µM (inactive)
- GI50 (M14): > 100 µM (inactive)

— ChEMBL document CHEMBL1201862, “PubChem BioAssay data set” (2004)
